Results as given in patent US8784910B2, “Antimicrobial compositions” (Lonza Inc., priority 2002, dated 2014).

Experiments:
Assay type in all cases: cell-based
[1] = test system: Staphylococcus aureus (ATCC #6538); assay: Minimum Inhibitory Concentration (MIC), autodilutor, nutrient broth, 96 well plates (Example 8); settings: 72 hours at 32 degree Celsius, approximately 10^6 cfu/g, visual turbidity
Procedure: The Minimum Inhibitory Concentration (MIC) of the preservative mixtures was tested. The MIC is the lowest concentration of an ingredient that will inhibit the growth of an organism. This study was conducted using the Hamilton Micro Lab AT Plus Autodilutor Liquid handling System. The programs for the auto-dilutor were based on Lonza's Standard Application Method SAPM#412-01-1. The Hamilton Autodilutor was used to dilute the starting concentrations of the preservative combination by 50% using nutrient broth in 96 well micro titer plates and also to inoculate the microorganism in the test samples. This preservatives tested were Isocil™ (a blend of methyl isothiazolinone and methyl-chloro-isothiazolinone), Benzocil™ (benzisothiazolinone) and Lonzagard™ (benzethonium chloride), all of which are available from Lonza Inc. of Fair Lawn, N.J., in various concentrations and combinations with cinnamaldehyde. Controls were also included in each test plate. […] Results were determined by checking for growth in the test samples versus the control wells on each plate (visual determination of turbidity in the wells). […] Synergism values for the Isocil™/cinnamaldehyde and Benzocil™/cinnamaldehyde combinations were calculated from the MIC values reported in Table 11 by the method described in Kull, supra, referred to above, and are set forth in Tables 12 and 13, below.

[2] = test system: S. aureus (ATCC #6538), P. aeruginosa (ATCC #9027), and E. coli (ATCC #8739); assay: Mixed bacterial challenge of preserved anionic protein shampoo (Examples 4 and 7); settings: 1.0% (1%) by weight in shampoo; for S. aureus, P. aeruginosa, and E. coli Day 0: Day 0, Table 3; for S. aureus, P. aeruginosa, and E. coli Day 7: Day 7, Table 3; for S. aureus, P. aeruginosa, and E. coli Day 14: Day 14, Table 3
Procedure: (§1) Each anionic shampoo sample in Table 3 below was tested as follows. A standardized mixed bacterial solution was prepared according to the following procedure. 3 agar stabs of S. aureus (ATCC #6538), P. aeruginosa (ATCC #9027), and E. coli (ATCC #8739) were separately incubated at about 35 EC for about 24 hours. Each stab was then washed with 3 mL of sterile 0.85% saline solution. The washes of the 3 stabs were pooled together to form an organism mixture. The absorbance of the organism mixture at 530 nm was adjusted to about 1.00 by adding saline. The spectrometer was calibrated with a saline blank. A 5 mL aliquot of the organism mixture was mixed together to produce the standardized mixed bacterial solution. Then, 40 g of each shampoo sample was inoculated with 0.2 mL of the standardized mixed bacterial solution and mixed. 1 g of the mixture was added to a sterile 20×150 mm screw cap test tube.
9 mL of sterile D/E neutralizer broth was added to the test tube and mixed to form a 10^−1 dilution. Serial dilutions were prepared through to a 10^−6 dilution with phosphate buffered water. The serial dilutions were plated onto Tryptic Soy Agar and incubated for 2 days at about 35 EC. Bacteria counts were performed after 0, 7, and 14 days.
(§2) The anionic protein shampoo composition was comprised of 35% by weight of sodium lauryl ether sulfate; 25% by weight of triethanolamine lauryl sulfate; 3% by weight coconut diethanolamide (cocamide DEA); 1% by weight of hydrolyzed collagen, available as Polypro 5000™ from Hormel Foods of Austin, Minn.; and 36% by weight of deionized water.
The cinnamaldehyde and other preservative containing samples were prepared by mixing the appropriate amounts of the preservatives and the aforementioned anionic protein shampoo composition and heating the mixture to about 50 EC for about 15 minutes.
Synergism for the cinnamaldehyde/Glydant 2000™ solutions in Table 8 against S. aureus, P. aeruginosa, and E. coli was calculated by the method described in C. E. Kull et al., A Mixtures of Quaternary Ammonium Compounds and Long-chain Fatty Acids as Antifungal Agents@, Applied Microbiology, 9:538-541 (1961). The synergism value (QA/Qa+QB/Qb) in Table 7 was determined. […] Qa is the concentration of cinnamaldehyde alone (in percent by weight) required to yield 100% retardation of the bacteria. QB is the concentration of Glydant 2000™ (in percent by weight) in the mixture, which yielded 100% retardation of the bacteria. Qb is the concentration of Glydant 2000™ alone (in percent by weight) required to yield 100% retardation of the bacteria.
When the value of (QA/Qa+QB/Qb) is less than one, the mixture is synergistic. Values for (QA/Qa+QB/Qb) of 1 and greater than 1, represent an additive effect and an antagonistic effect, respectively.

[3] = test system: Candida albicans and Aspergillus niger; assay: Mixed fungal challenge of preserved anionic protein shampoo (Example 5); settings: 1.0% in shampoo
Procedure: Each anionic shampoo sample in Table 4 below was tested as follows. A standard mixed […] solution was prepared according to the following procedure. 2 agar […] of Candida albicans and 4 agar […] of Aspergillus niger were separately incubated at about 25 EC for about 48 hours and 7 days, respectively. Each slant was washed with 3 mL of sterile 0.85% saline solution, collected and macerated in a tissue grinder. Sufficient amounts of 0.85% saline solution were added to each slant to obtain a visual count under a microscope with a Neubauer Hemocytometer of each innoculum of C. albicans and A. niger. Equal volumes of each standardized innoculum of C. albicans and A. niger were mixed together to form the standardized mixed fungal solution. 40 g of each shampoo sample was inoculated with 0.4 mL of the standardized mixed fungal solution and mixed. 1 g of the mixture was added to a sterile 20×150 mm screw cap test tube. 9 mL of sterile D/E neutralizer broth was added to the test tube and mixed to form a 10^-1 dilution. Serial dilutions were prepared through to a 10^-6 dilution with phosphate buffered water. The serial dilutions were plated onto Sabourand dextrose agar and incubated 5 days at about 25 EC. […] The anionic protein shampoo composition is described in Example 4. The shampoo samples were prepared by mixing the appropriate amounts of the preservatives and the anionic protein shampoo composition and heating the mixture to about 50 EC for about 15 minutes.

[4] = test system: S. aureus (ATCC #6538), P. aeruginosa (ATCC #9027), and E. coli (ATCC #8739); assay: Mixed bacterial challenge of preserved anionic protein shampoo, pH 6.5 (Example 3); settings: 0.45% w/w in shampoo; for bacteria count Day 0: pH 6.5, Day 0; for bacteria count Day 7: pH 6.5, Day 7; for bacteria count Day 14: pH 6.5, Day 14; for bacteria count Day 28: pH 6.5, Day 28
Procedure: as §1, with “FIGS. 1-3 were” for “Table 3 below was”
9 mL of sterile D/E neutralizer broth was added to the test tube and mixed to form a 10^−1 dilution. Serial dilutions were prepared through to a 10^−6 dilution with phosphate buffered water. The serial dilutions were plated onto Tryptic Soy Agar and incubated for 2 days at about 35 EC. […]
as §2
The antimicrobial composition containing samples were prepared by mixing the appropriate amounts of the antimicrobial ingredients and the aforementioned anionic protein shampoo composition and heating the mixture to about 50 EC for about 15 minutes.
The pH of the shampoo was adjusted to 6.5. […]

| SMILES | S. aureus, P. aeruginosa, and E. coli Day 0 [2] | S. aureus, P. aeruginosa, and E. coli Day 7 [2] | S. aureus, P. aeruginosa, and E. coli Day 14 [2] | bacteria count Day 0 [4] | bacteria count Day 7 [4] | bacteria count Day 14 [4] | other results |
| --- | --- | --- | --- | --- | --- | --- | --- |
| O=c1[nH]sc2ccccc12 [Benzocil ™, benzisothiazolinone] |  |  |  |  |  |  | MIC for S. Aureus [1]: 9.375 ppm (active) |
| OCc1ccccc1 [Benzyl Alcohol, reference compound] | 3.0 × 10^7 cfu/g | 5.0 × 10^6 cfu/g | 5.3 × 10^6 cfu/g |  |  |  | Fungal Plate Count Day 0 ([3]; Day 0): 1.0 × 10^5 cfu/g; Fungal Plate Count Day 7 ([3]; Day 7): 6.0 × 10^3 cfu/g; Fungal Plate Count Day 14 ([3]; Day 14): 6.0 × 10^4 cfu/g |
| CC(C)=CCCC(C)=CC=O [Citral] | 3.0 × 10^7 cfu/g | 3.0 × 10^7 cfu/g | 3.0 × 10^7 cfu/g |  |  |  |  |
| C=CCc1ccc(O)c(OC)c1 [Eugenol] | 3.0 × 10^7 cfu/g | 3.0 × 10^7 cfu/g | 3.0 × 10^7 cfu/g |  |  |  |  |
| CC(C)=CCC/C(C)=C/CO [Gerniol] | 3.0 × 10^7 cfu/g | 3.0 × 10^7 cfu/g | 3.0 × 10^7 cfu/g |  |  |  |  |
| CC(C)=CCC/C(C)=C\CO [Nerol] | 3.0 × 10^7 cfu/g | 3.0 × 10^7 cfu/g | 3.0 × 10^7 cfu/g |  |  |  |  |
| C=C(C)[C@H]1CC=C(C)CC1 [d-Limonene] | 3.0 × 10^7 cfu/g | 3.0 × 10^7 cfu/g | 3.0 × 10^7 cfu/g |  |  |  |  |
| C/C=C/C=C/C(=O)[O-].[K+] [potassium sorbate] |  |  |  | 1-3 × 10^6 cfu/g | 1 × 10^5 cfu/g | 6 × 10^4 cfu/g |  |
| O=C([O-])c1ccccc1.[Na+] [sodium benzoate] |  |  |  | 1-3 × 10^6 cfu/g | 1 × 10^5 cfu/g | 7 × 10^5 cfu/g | bacteria count Day 28 [4]: <10 cfu/g |
| O=C1O[C@H]([C@H](O)CO)C([O-])=C1O.[Na+] [sodium erythorbate] |  |  |  | 1-3 × 10^6 cfu/g | >3 × 10^6 cfu/g | >3 × 10^6 cfu/g | bacteria count Day 28 [4]: >3 × 10^6 cfu/g |
